“Also recorded” adds a separate entry of the source.
What was measured:
GST-PPAR beta/delta LBD [1] = molecular target: T1, GST-PPAR beta/delta LBD (Homo sapiens, UniProt Q03181); assay: Ligand-induced binding of corepressor peptide SMRT-ID2, TR-FRET; type: biochemical; conditions: concentration dependent
T1 construct: GST-PPAR beta/delta LBD (GST=glutathione S-transferase); purchased Invitrogen, Darmstadt, Germany
T1 sequence (Q03181 211-439 limits assumed): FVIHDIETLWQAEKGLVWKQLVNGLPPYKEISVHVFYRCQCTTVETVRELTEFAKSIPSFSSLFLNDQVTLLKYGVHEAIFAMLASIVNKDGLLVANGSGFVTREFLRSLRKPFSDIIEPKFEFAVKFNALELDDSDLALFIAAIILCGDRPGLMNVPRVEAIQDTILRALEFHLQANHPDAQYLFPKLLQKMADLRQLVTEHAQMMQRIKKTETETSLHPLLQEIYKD
Procedure: FIG. 2: Induction of corepressor peptide binding to GST-PPAR beta/delta ligand binding domain (LBD) in vitro in dependency of the concentration of the substances of this invention comparative compound (CC) 2, compound 1 (A), compound 2 (B), compound 3 (C), compound 4 (D) and compound 5 (E). The interaction of fluorescein-labeled SMRT-ID2 peptide with recombinant GST-PPAR beta/delta LBD bound to a terbium-labeled anti-GST antibody is determined by TR-FRET analysis. Shown is the ratio of fluorescence intensity at 520 nm (fluorescein emission, excited by terbium emission) and 495 nm (terbium emission). All data points represent average values of triplicates (+/−standard deviation).
B) The ligand-induced binding of the commercially available fluorescein-labeled corepressor peptide SMRT-ID2 ([…]) (Invitrogen, Darmstadt, Germany) to GST-PPAR beta/delta is for example measured by TR-FRET analysis using a terbium-labeled anti-GST antibody in a VICTOR3V Multilabel Counter (WALLAC 1420; PerkinElmer Life and Analytical Sciences, Rodgau, Germany). The measurement is performed in a buffer composed of 100 mM KC, 20 mM Tris pH 7.9, 0.01% Triton X100 and 1 μg/μL bovine serum albumin.

ANGPTL4 gene expression [2] = assay: ANGPTL4 gene expression (qPCR) in WPMY-1 myofibroblasts; type: cell-based, human; conditions: Homo sapiens, 6 h; WPMY-1 cells, six hours treatment; read-out: IC50 (mean inhibitory concentration), endogenous ANGPTL4 expression
Procedure: (§1) FIG. 5: Influence of the substances of this invention comparative compound (CC) 2, compound 1, compound 5, compound 2 and compound 3 on ANGPTL4 gene expression. • (A) Comparison of relative ANGPTL4 expression, (B) mean inhibitory concentration of substances of this invention. (A) Human myofibroblasts (WPMY-1) are treated for 24 hours with the substances of this invention (1 μM), then RNA is isolated, the cDNA synthesized and analyzed by qPCR, normalized to L27 gene expression. (B) Titration of the effect of substances of this invention on the endogenous ANGPTL4 expression in WPMY-1 cells (left) or peritoneal mouse macrophages (right) after cells have been treated for six hours with the substances of this invention compound 1 and compound 2, respectively; RNA isolation, cDNA synthesis and qPCR as described for (A). The relative expression is calculated in relation to DMSO-treated cells. All values are average values of triplicates (+1-standard deviation). Asterisks (***, **, *) indicate significant differences to DMSO-treated cells (***: p<0.001 after t-test; *: p <0.05).
The influence of substances of this invention on PPAR-beta/delta regulated genes like for example ANGPTL4 which codes for the angiopoietin-like protein ANGPTL4 is assessed in different cells with a confluence of 70% to 80% in a 6-well cell culture plate. For this purpose, cultivated human myofibroblasts (WPMY-1), peritoneal mouse macrophages or cells of the human breast cancer cell line MDA-MB-231 are treated for 24 hours with 1 μM of the substances of this invention. Cells of the breast cancer cell line are in addition stimulated for 6 hours with TGF-beta2 (2 ng/ml) which is commercially available. Subsequently, RNA is isolated from the cells by procedures known to the expert and analyzed by quantitative PCR (qPCR, real time qPCR, RT-qPCR) also known to those skilled in the art. […]

ANGPTL4 gene expression [3] = assay: ANGPTL4 gene expression (qPCR) in peritoneal mouse macrophages; type: cell-based; conditions: Macrophage, 6 h, six hours treatment, read-out: IC50 (mean inhibitory concentration), endogenous ANGPTL4 expression
Procedure: as §1, with “All values are average values of triplicates (+1-standard deviation). Asterisks (***, **, *) indicate significant differences to DMSO-treated cells (***: p<0.001 after t-test; *: p <0.05).” left out
The influence of substances of this invention on PPAR-beta/delta regulated genes like for example ANGPTL4 which codes for the angiopoietin-like protein ANGPTL4 is assessed in different cells with a confluence of 70% to 80% in a 6-well cell culture plate. […] Subsequently, RNA is isolated from the cells by procedures known to the expert and analyzed by quantitative PCR (qPCR, real time qPCR, RT-qPCR) also known to those skilled in the art. […]

ANGPTL4 gene expression [4] = assay: ANGPTL4 expression (qPCR) in breast cancer cell line MDA-MB-231; type: cell-based, human; conditions: for TGF-beta2-induced ANGPTL4 expression: MDA-MB-231, 1 μM pre-treatment 24 hours, then TGF-beta2 2 ng/ml for 6 hours
Procedure: FIG. 6: Influence of the substances of this invention compound 1 and compound 5 on the induction of ANGPTL4 expression by TGF-beta2 in the breast cancer cell line MDA-MB-231. • The human breast cancer cell line MDA-MB-231 is pre-treated for 24 hours with 1 μM of the substances of this invention compound 1 or compound 5, respectively, and subsequently stimulated with TGF-beta2 (2 ng/ml) for 6 hours. The relative ANGPTL4 expression is determined by qPCR.
The influence of substances of this invention on PPAR-beta/delta regulated genes like for example ANGPTL4 which codes for the angiopoietin-like protein ANGPTL4 is assessed in different cells with a confluence of 70% to 80% in a 6-well cell culture plate. For this purpose, cultivated human myofibroblasts (WPMY-1), peritoneal mouse macrophages or cells of the human breast cancer cell line MDA-MB-231 are treated for 24 hours with 1 μM of the substances of this invention. Cells of the breast cancer cell line are in addition stimulated for 6 hours with TGF-beta2 (2 ng/ml) which is commercially available. Subsequently, RNA is isolated from the cells by procedures known to the expert and analyzed by quantitative PCR (qPCR, real time qPCR, RT-qPCR) also known to those skilled in the art. For this, cDNA is synthesized using 0.25 μg to 1 μg of RNA, oligo(dT)-primers and a commercially available cDNA synthesis kit. qPCR is then conducted in a Mx3000P RT-qPCR system (Stratagene, La Jolla, Calif., USA) according to the manufacturer's instructions with 40 cycles, an annealing temperature of 60° C., and for example human ANGPTL4 primers (fw: […]; rv: […]) and the ribosomal I27 (fw: […]; rv: […]) as normalizing gene known to the expert in this field. […] The respective IC50 value (mean inhibitory concentration) for substances of this invention compound 1 and compound 2 is depicted in FIG. 5 B and is maximal 20 nM in WPMY-1 cells and maximal 30 nM in peritoneal mouse macrophages, respectively.

GST-PPAR beta/delta LBD [5] = molecular target: T1, GST-PPAR beta/delta LBD; assay: Inhibition of compound 1-induced binding of corepressor peptide SMRT-ID2, TR-FRET; type: biochemical; conditions: 1 μM test substance, increasing concentrations of inverse agonist compound 1
Procedure: FIG. 3: Inhibition of agonist-induced co-activator peptide binding (A) and inverse agonist compound 1-induced corepressor peptide binding (B) by the substance of this invention compound 5. • The recruitment of the co-activator or corepressor peptide, respectively, is determined in a TR-FRET assay. As co-activator peptide, C33 is utilized, as corepressor peptide SMRT-ID2. The experiment is performed with a constant concentration of 1 μM of the substance of this invention compound 5 and increasing concentrations of the agonist L165041 (A) or the inverse agonist compound 1 (B), respectively.
C) The inhibition of the recruitment of co-activator peptide C33 known to the expert in this field mediated by PPAR beta/delta agonist L165,041 or the inhibition of the inverse agonist inventive compound 1-mediated binding of the corepressor peptide SMRT-ID2 to GST-PPAR beta/delta LBD by the substance of this invention compound 5 (1 μM) was also determined by TR-FRET measurements. Both is shown in FIGS. 3 A and B in dependency of the concentration of the agonist (A) and the inverse agonist (B), respectively.

Compound	induction of interaction of PPAR beta/delta LBD with corepressor peptide SMRT-ID2 (GST-PPAR beta/delta LBD [1])	IC50 (ANGPTL4 gene expression [2]) [nM]	IC50 (ANGPTL4 gene expression [3]) [nM]	TGF-beta2-induced ANGPTL4 expression (ANGPTL4 gene expression [4])	ANGPTL4 expression (ANGPTL4 gene expression [4]; breast cancer cell line MDA-MB-231-luc21H4)	inhibition of compound 1-mediated interaction of LBD with corepressor peptide SMRT-ID2 (GST-PPAR beta/delta LBD [5])
CCCCCCNc1ccc(NS(=O)(=O)c2ccsc2C(=O)OC)c(OC)c1 [compound 1, methyl 3-(N-(4-(hexylamino)-2-methoxyphenyl)sulfamoyl)thiophene-2-carboxylate]	clearly demonstrate the interaction; also recorded: induce	≤ 20	≤ 30	loss of TGF-beta2-induced ANGPTL4 expression	drastic reduction	
CCCCCCNc1ccc(NS(=O)(=O)c2ccsc2C(=O)OC)cc1OC [compound 2, methyl 3-(N-(4-(hexylamino)-3-methoxyphenyl)sulfamoyl)thiophene-2-carboxylate]	clearly demonstrate the interaction; also recorded: induce	≤ 20	≤ 30			
COC(=O)c1sccc1S(=O)(=O)Nc1ccc(NC(C)(C)C)cc1OC [compound 5, methyl 3-(N-(4-(tert-butylamino)-2-methoxyphenyl)sulfamoyl)thiophene-2-carboxylate]				does not influence the induction of ANGPTL4 expression		prevents
